In patent publication US20210220419A1, “Herbal Nutraceutical Formulation to Reduce Oxidative Stress, Viral and Microbial Infections, and Inflammation” (priority 2017, published 2021):
In brackets after ≈: the same amount, converted by molar mass. Like-named read-outs stand apart in the source and are kept apart here. Each block holds one molecule with its values, some of them ahead of it.

Legend:
[1] = DPPH radical scavenging assay (Experiment 2); assay type: biochemical
Description: Gallic acid (reference inhibitor) preparation. For gallic acid, a stock of 200 μg/ml was prepared by dissolving 2 mg of gallic acid in 10 ml of methanol. Further dilutions were made as required with methanol. […] In brief, the total reaction mixture contained methanol/vehicle buffer/positive control/various concentrations of test solution and DPPH to a final concentration of 0.132 mM. The reaction mixture was incubated at 25° C. for 20 minutes. Following incubation the absorbance was read at 510 nm using a micro-well plate reader (Molecular devices Versamax microplate reader). A control reaction was carried out without test samples. The % inhibition values were calculated as follows: [formula] Where, Absorbance=Final Absorbance−Initial absorbance. IC50 was calculated using log-probit analysis.

[2] = Super oxide radical scavenging assay (NADH/NBT/PMS); assay type: biochemical
Description: (§1) Gallic acid (reference inhibitor) preparation, For gallic acid, a stock of 500 μg/ml was prepared by dissolving 5 mg of gallic acid in 10 ml of 0.1M phosphate buffer pH 7.4. […] The assay was carried out as per the method of Yen et al. with modifications. In brief, the reaction mixture contained 0.1M phosphate buffer pH 7.4/vehicle buffer/positive control/test sample of various concentrations, 292.5 μM NADH, 37.5 μM NBT and 15 μM PMS. The plate was mixed and incubated at 25° C. for 5 minutes. The absorbance was measured at 560 nm in a micro-plate reader (Versamax, Molecular devices). A control reaction was carried out without test samples. The % inhibition values were calculated as follows: [formula] IC50 was calculated using log-probit analysis.

[3] = Solubility of sample preparation upon visual inspection; assay type: physicochemical
Description: Briefly, 12.5 mg of the herbal composition 2 contents was weighed, dissolved in 312.5 μl of DMSO and the volume was made up to 10 ml with 100% methanol. Further dilutions were done in 100% methanol containing 3.125% of DMSO. […] For calculation purposes the sample was considered to be 100% soluble.
Gallic acid (reference inhibitor) preparation. For gallic acid, a stock of 200 μg/ml was prepared by dissolving 2 mg of gallic acid in 10 ml of methanol. Further dilutions were made as required with methanol.
Briefly, 29.73 mg of the Herbal composition 2 contents was weighed, dissolved in 500 μl of DMSO and the volume was made up to 25 ml with phosphate buffered saline. […] The sample was filtered and the filtrate was used for the assay. For calculation purposes the sample was considered to be 100% soluble.
Trolox (reference inhibitor) preparation, For trolox, a stock of […] was prepared by dissolving 2 mg of trolox in 2 ml of phosphate buffered saline. […] Further dilutions were made as required with phosphate buffered saline.
Briefly, 8 mg of the Herbal composition 2 contents was weighed, dissolved in 200 μl of DMSO and the volume was made up to 2 ml with 0.1M phosphate buffer pH 7.4. Further dilutions were done in 0.1M phosphate buffer pH 7.4 containing 10% of DMSO. […] For calculation purposes the sample was considered to be 100% soluble.
as §1, with “samples.” for “samples. The % inhibition values were calculated as follows: [formula] IC50 was calculated using log-probit analysis.”

rat pancreatic islets = experiment: Insulin secretion in rat pancreatic islets (ELISA); assay type: cell-based; conditions: 3 μM
Description: The objective of the experiment is to evaluate the effect of herbal supplement test composition on insulin secretion in rat pancreatic islets. Insulin, a peptide hormone, is secreted by pancreatic β-cells and is a key regulator in glucose homeostasis. Insulin deficiency leads to insulin-dependent (type 1) diabetes, whereas resistance to insulin action is common in non-insulin-dependent diabetes (type 2), obesity, and endocrine dysfunctions. The pancreatic β-cells are known to be sensitive to the glucose concentration in the blood. When the blood glucose levels are high they secrete insulin into the blood; when the levels are low they cease their secretion of this hormone into the general circulation. Insulin released by the β-cells is the main regulator of glucose levels.
Firstly, the herbal supplement composition is dissolved in DMSO with sonication for 15 min and centrifuged at 10,000 rpm for 10 minutes at room temperature to remove insoluble debris. Glyburide (CAS: 10238-21-8) and Glucose are used as reference compounds in the present experiment. Glyburide (CAS: 10238-21-8) is dissolved in DMSO and used at 3 μM. […]
At the end of the 1 hr incubation period, 20 μl of supernatant is gently transferred to another plate. Insulin secretion is measured using the Mercodia Rat Insulin ELISA kit according to the manufacturer's protocol. […]

LDL oxidation = LDL oxidation inhibition assay, human serum, copper sulphate (Experiment 3); assay type: biochemical
Description: The sample was filtered and the filtrate was used for the assay. […] Trolox (reference inhibitor) preparation, For trolox, a stock of […] was prepared by dissolving 2 mg of trolox in 2 ml of phosphate buffered saline. […] Further dilutions were made as required with phosphate buffered saline. The assay was carried out as per the method of Hodgson et al with modifications. In brief, the reaction mixture contained phosphate buffered saline/vehicle buffer/positive control/test sample of various concentrations and serum from fasting human. Copper sulphate solution was added to the reaction mixture to start the reaction. The reaction mix was mixed and read immediately at 234 nm using a UV-VIS spectrophotometer, for the initial reading, and incubated. After the completion of incubation period, the final absorbance was measured at 234 nm. A control reaction was carried out without test samples. The % inhibition values were calculated as follows: [formula] Where, Absorbance=Final Absorbance−Initial absorbance. IC50 was calculated using log-probit analysis.

[4] = DPPH radical scavenging activity, cell-free assay (Experiment 7); assay type: biochemical; conditions: 200 μM DPPH, 30 min
Description: The objective of this experiment is to evaluate the effect of the supplement concentration on DPPH radical scavenging activity in a cell-free assay. The supplement concentration is dissolved in DMSO with sonication for 15 min and centrifuged at 10,000 rpm for 10 min at room temperature to remove insoluble debris. 2,2-Diphenyl-1-picrylhydrazyl (DPPH) is used as a reagent for this experiment. DPPH is an antioxidant reagent that is used as a free radical trap or scavenger. The color of DPPH changes from red to yellow as its scavenging activity increases. This is measured by absorbance at 517 nm. The reference compound used is Trolox (CAS: 53188-07-1). The Trolox is dissolved in DMSO and used at different concentrations. Trolox is used as positive control.
A reaction mix is made in 200 μL methanol containing 200 μM of DPPH and various concentrations of the supplement. The mixture is mixed gently with a pipette and left to stand for 30 min in the dark, after which absorbance readings are taken at 517 nm. The change in DPPH absorbance is calculated relative to the absorbance of DPPH alone i.e. without the supplement. The DMSO concentration in the assay is maintained at less than equal to 1.0%. The data is fit to a non-linear regression using Graph pad Prism (version 5.0). […]

Caco-2 cells = experiment: NBD-cholesterol uptake in Caco-2 cells; assay type: cell-based, human; conditions: positive control, 1.25, 2.5, 5 and 10 μM, 48 hrs
Description: The objective of the experiment is to evaluate the effect of the supplement composition on cholesterol uptake in Caco-2 (human epithelial colorectal adenocarcinoma) cells. Cholesterol is both an important structural component of cell membranes and an early intermediate in hormone and bile acid biosynthesis. The supplement composition is dissolved in Dimethyl Sulphoxide (DMSO) with sonication for 15 min and centrifuged at 10,000 rpm for 10 min at room temperature to remove insoluble debris. The reference compound used in the present experiment is U-18666A (CAS: 3039-71-2), which increases cholesterol uptake by inhibiting trafficking of synthesized cholesterol. The U-18666A is dissolved in DMSO and used at a concentration of about 1.25, 2.5, 5 and 10 μM. Moreover, U-18666A is used as a positive control. The reagent used is 3-hexanoyl-NBD Cholesterol. Caco-2 cells are maintained at 60-70% confluence in complete growth medium EMEM containing 20% FBS and required antibiotic. For the assay, cells are harvested using 0.25% trypsin EDTA. The trypsinized cells are centrifuged at 1200 rpm for 5 minutes and re-suspended in growth medium. […] At the end of the incubation period, the plates are washed twice with PBS and cholesterol uptake is calculated by measuring NBD cholesterol fluorescence (Ex 485 nm, Em 535 nm). […]

[5] = system: Low Density Lipoproteins, Human Plasma; experiment: LDL oxidation in a cell-free system, Cu2+ induced (Experiment 10); assay type: biochemical; conditions: reference compounds, FIG. 6B

Compound: O=C(O)c1cc(O)c(O)c(O)c1 [Gallic Acid, Gallic acid]
% Inhibition (Mean ± SEM), DPPH ([1]; 0.5 μg/ml): 8.71 ± 1.12%
% Inhibition (Mean ± SEM), DPPH ([1]; 1.5 μg/ml): 32.14 ± 2.42%
% Inhibition (Mean ± SEM), DPPH ([1]; 2.5 μg/ml): 60.58 ± 2.84%
% Inhibition (Mean ± SEM), DPPH ([1]; 5 μg/ml): 80.52 ± 0.57%
IC50 (95% Confidence Interval), DPPH radical scavenging ([1]; log-probit analysis): 2.09 µg/mL (≈ 12.3 µM)
% Inhibition (Mean ± SEM), super oxide radical ([2]; 5 μg/ml): 27.00 ± 3.37%
% Inhibition (Mean ± SEM), super oxide radical ([2]; 10 μg/ml): 32.89 ± 3.26%
% Inhibition (Mean ± SEM), super oxide radical ([2]; 20 μg/ml): 47.80 ± 4.26%
% Inhibition (Mean ± SEM), super oxide radical ([2]; 40 μg/ml): 69.50 ± 1.00%
% Inhibition (Mean ± SEM), super oxide radical ([2]; 80 μg/ml): 83.67 ± 0.00%
IC50 (95% Confidence Interval), super oxide radical scavenging ([2]; log-probit analysis): 17.86 µg/mL (≈ 105 µM)
Solubility upon visual inspection [3]: approximately 100%
Solubility upon visual inspection ([3]; pH 7.4): approximately 100%

Compound: COc1ccc(Cl)cc1C(=O)NCCc1ccc(S(=O)(=O)NC(=O)NC2CCCCC2)cc1 [Glyburide]
Insulin secretion, effect in words (rat pancreatic islets): significant increase

IC50 (LDL oxidation; log-probit analysis, read-out: IC50 (95% Confidence Interval), LDL oxidation inhibition): 180 nM
EC50, DPPH scavenging activity [4]: 28 µg/mL (≈ 112 µM)
Solubility upon visual inspection [3]: approximately 100%
Compound: Cc1c(C)c2c(c(C)c1O)CCC(C)(C(=O)O)O2 (centres unmarked) [Trolox]
% Inhibition (Mean ± SEM), LDL oxidation (LDL oxidation; 0.25 μM): 48.80 ± 6.21%
% Inhibition (Mean ± SEM), LDL oxidation (LDL oxidation; 0.5 μM): 73.07 ± 3.39%
% Inhibition (Mean ± SEM), LDL oxidation (LDL oxidation; 1.0 μM): 76.33 ± 0.07%
% Inhibition (Mean ± SEM), LDL oxidation (LDL oxidation; 2.0 μM): 79.04 ± 0.64%

Compound: CCN(CC)CCO[C@H]1CC[C@@]2(C)C(=CC[C@@H]3[C@@H]2CC[C@]2(C)C(=O)CC[C@@H]32)C1 [U-18666A]
Increase in NBD-cholesterol uptake (Caco-2 cells): up to 25%

Compound: O=C1O[C@H]([C@@H](O)CO)C(O)=C1O [ascorbic acid]
Inhibition of LDL oxidation, in words [5]: significant inhibition
